Read-outs that look alike come from different tables or passages of the source.
Tests used:
[1] = tested on: protease present in pancreatic juice; assay: Protease activity (fluorescent-labeled casein, same manner as Example 1) in pancreatic juice specimens; type: biochemical; conditions: pancreatin and two pancreatic juice specimens, 1 mM PMSF, 4 mM AEBSF; for protease inhibitory effects against protease present in pancreatic juice: Example 4, 5 mM p-APMSF, 100 μl TLCK, 100 μM TPCK, FIG. 5; for protease inhibitory effect (fluorescence = degraded amount of casein): Example 3, 0.3 μM aprotinin, 50 μM leupeptin, FIG. 4
Procedure: After adding each protease inhibitor cocktail so that the final concentration thereof was equal to manufacturer's recommended concentration (1×) or a concentration equal to 5 times the recommended concentration (5×), protease activity was measured using a simulated artificial pancreatic juice in the form of “pancreatin”, a digestive enzyme produced from porcine pancreas in which pancreatic enzymes are present in an activated state. Protease activity was measured using EnzCheck Protease Assay Kits (Molecular Probes). […] In addition, a sample solution in which fluorescent-labeled casein was added directly to pancreatin (inhibitor (−), DMSO (−)), a sample solution in which DMSO was added to pancreatin so that the added amount of DMSO was the same as in the case of adding each protease inhibitor cocktail at the manufacturer's recommended concentration (1×) (inhibitor (−), DMSO 1×), and a sample solution in which DMSO was added to pancreatin so that the added amount of DMSO was the same as in the case of adding each protease inhibitor cocktail at a concentration equal to five times the manufacturer's recommended concentration (5×) (inhibitor (−), DMSO 5×) were prepared for use as controls, and these sample solutions were measured for protease activity in the same manner as the protease inhibitor cocktails.
There are four types of serine protease inhibitors contained in Protease Inhibitor Mix (GE) consisting of aprotinin, leupeptin, PMSF and AEBSF (concentrations are not disclosed). Therefore, protease activity was measured in the same manner as Example 1 using pancreatin and two types of pancreatic juice specimens for 15 combinations of the four types of inhibitors prepared so that the final concentration was equal to the maximum recommended concentration for each protease inhibitor alone. Furthermore, the maximum recommended concentrations consisted of 0.3 μM for aprotinin (Roche), 50 μM for leupeptin (Roche), 1 mM for PMSF (Roche) and 4 mM for AEBSF (Roche). In addition, protease activity was also measured in the same manner for a sample solution to which protease inhibitor was not added (Control Sample Solution 1), a sample solution containing the recommended concentration of Inhibitor Cocktail 1 (Complete, Roche) (Control Sample Solution 2), a sample solution containing Inhibitor Cocktail 1 at 5 times the recommended concentration (5×) (Control Sample Solution 3), a sample solution containing the recommended concentration of Inhibitor Cocktail 4 (Protease Inhibitor Mix, GE) (Control Sample Solution 4), and a sample solution containing Inhibitor Cocktail 4 at five times the recommended concentration (5×) (Control Sample Solution 5).
More specifically, a sample solution obtained by adding 1 mM PMSF and 4 mM AEBSF, a sample solution obtained by adding 1 mM PMSF, a sample solution obtained by adding 4 mM AEBSF, a sample solution obtained by adding 5 mM p-APMSF, a sample solution obtained by adding […] TLCK and a sample solution obtained by adding 100 μM TPCK were prepared for use as protease inhibitors, and the protease activity of each sample solution was measured in the same manner as Example 1 using pancreatin and two types of pancreatic juice specimens. In addition, the protease activities of a sample solution to which protease inhibitor was not added (inhibitor (−)), a sample solution containing Inhibitor Cocktail 1 at the recommended concentration (Complete, Roche), a sample solution containing Inhibitor Cocktail 1 at 5 times the recommended concentration (5×), a sample solution containing Inhibitor Cocktail 4 at the recommended concentration (Protease Inhibitor Mix, GE), and a sample solution containing Inhibitor Cocktail 4 at five times the recommended concentration (5×) were also measured in the same manner.

[2] = tested on: protease present in pancreatic juice; assay: as above; type: biochemical; conditions: for concentration at which high levels of protease inhibitory effects against protease present in pancreatic juice are obtained: Example 7, pancreatin and two pancreatic juice specimens, various final concentrations, FIGS. 9-11
[3] = tested on: protease in duodenal juice specimens; assay: Protease activity (fluorescent-labeled casein) in duodenal juice specimens; type: biochemical; conditions: Example 9; four duodenal juice specimens; 1 mM PMSF + 4 mM AEBSF plus 0.3 mM Aprotinin or 1 mM TLCK; FIG. 14
Procedure: After adding each protease inhibitor cocktail so that the final concentration thereof was equal to manufacturer's recommended concentration (1×) or a concentration equal to 5 times the recommended concentration (5×), protease activity was measured using a simulated artificial pancreatic juice in the form of “pancreatin”, a digestive enzyme produced from porcine pancreas in which pancreatic enzymes are present in an activated state. Protease activity was measured using EnzCheck Protease Assay Kits (Molecular Probes). More specifically, fluorescent-labeled casein provided with the kits was added to a pancreatin solution to which each protease inhibitor cocktail had been added, and after incubating for 2 hours at 37° C., fluorescence was measured at a fluorescence wavelength of Ex/Em=485/535 nm. […]
More specifically, a sample solution obtained by adding 1 mM PMSF and 4 mM AEBSF, a sample solution obtained by adding 1 mM PMSF, 4 mM AEBSF and 0.3 mM Aprotinin, and a sample solution obtained by adding 1 mM PMSF, 4 mM AEBSF and 1 mM TLCK were prepared as protease inhibitors, and the protease activity of each sample solution was measured in the same manner as Example 1 using four types of duodenal juice specimens. The protease activity of a sample solution to which protease inhibitor was not added (Inhibitor (−)) was also measured in the same manner as a control.

[4] = tested on: pancreatin (simulated artificial pancreatic juice; pancreatic enzymes in an activated state); assay: Protease activity, EnzCheck Protease Assay Kits (fluorescent-labeled casein), in pancreatin solution; type: biochemical, porcine; conditions: Example 5; 0.0003 mM to 0.3 mM Aprotinin; FIGS. 6 and 7
Procedure: […] 5 times the recommended concentration (5×), protease activity was measured using a simulated artificial pancreatic juice in the form of “pancreatin”, a digestive enzyme produced from porcine pancreas in which pancreatic enzymes are present in an activated state. Protease activity was measured using EnzCheck Protease Assay Kits (Molecular Probes). More specifically, fluorescent-labeled casein provided with the kits was added to a pancreatin solution to which each protease inhibitor cocktail had been added, and after incubating for 2 hours at 37° C., fluorescence was measured at a fluorescence wavelength of Ex/Em=485/535 nm. […]
Fluorescence plotted on the vertical axis represents the degraded amount of casein, and that value was estimated to be the value of protease activity.

[5] = Example 5, pancreatic juice specimens, 10-50 μm Elastase Inhibitor I, 1-10 mM EDTA, 0.0003-0.3 mM Aprotinin, 0.005-5 mM Leupeptin, 0.01-1 mM TLCK or TPCK, FIGS. 6 and 7

Molecule	protease inhibitory effects against protease present in pancreatic juice [1]	concentration at which high levels of protease inhibitory effects against protease present in pancreatic juice are obtained [2]	inhibitory effects against protease present in pancreatic juice [2, 5]	other results
O=S(=O)(F)Cc1ccccc1 [PMSF, phenylmethylsulfonyl fluoride]	high levels of protease inhibitory effects	≥ 1 mM		
CC(=O)N[C@@H](CC(C)C)C(=O)N[C@@H](CC(C)C)C(=O)N[C@H](C=O)CCCNC(=N)N [Leupeptin]			hardly any inhibitory effects	protease inhibitory effect (fluorescence = degraded amount of casein) [1]: hardly any effect on protease activity
NCCc1ccc(S(=O)(=O)F)cc1 [AEBSF, 4-(2-aminoethyl)-benzenesulfonyl fluoride]	high levels of protease inhibitory effects	≥ 4 mM		
O=C(O)CN(CCN(CC(=O)O)CC(=O)O)CC(=O)O [EDTA]				inhibitory effects against protease present in pancreatic juice [2]: hardly any inhibitory effects
Aprotinin			hardly any effects	additional inhibitory effects when added to PMSF and AEBSF, compared with PMSF and AEBSF only [3]: additional inhibitory effects were not observed; protease inhibitory effect (fluorescence = degraded amount of casein) [1]: hardly any effect on protease activity; protease inhibitory effects against pancreatin (simulated pancreatic juice) [4]: weak protease inhibitory effects
Cc1ccc(S(=O)(=O)N[C@@H](Cc2ccccc2)C(=O)CCl)cc1 [TPCK, N-a-tosyl-L-phenylalanine chloromethyl ketone]	low levels of protease inhibitory effects		slight protease inhibitory effects	
Cc1ccc(S(=O)(=O)N[C@@H](CCCCN)C(=O)CCl)cc1 [TLCK, N-a-tosyl-L-lysine chloromethyl ketone]	low levels of protease inhibitory effects		hardly any inhibitory effects	additional inhibitory effects when added to PMSF and AEBSF, compared with PMSF and AEBSF only [3]: additional inhibitory effects were observed
p-amidinophenylmethane sulfonyl fluoride hydrochloride [p-APMSF]	high levels of protease inhibitory effects	≥ 2 mM		

Reference: patent US20140186869A1, “METHOD FOR INHIBITING PROTEASE IN BIOLOGICAL SAMPLE CONTAINING PANCREATIC JUICE COMPONENTS” (OLYMPUS CORPORATION, priority 2011, published 2014)
